In PubChem BioAssay (NCI):
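Five concentrations, 48 hours, 96-well plates. GI50 marks 50% less growth. At the TGI there is no net growth.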 Where a SMILES comes first, the peptide text is derived from it. [ ]: non-standard residue; d: D form. Phe(4-Cl) = N[CH](Cc1ccc(Cl)cc1)C(=O)O

Assays:
Experiment in all cases: NCI tumour cell line growth inhibition, 48 h
HCC-2998 colon = tested on: HCC-2998 colon
MALME-3M melanoma = tested on: MALME-3M melanoma
NCI-H460 lung = tested on: NCI-H460 lung
OVCAR-3 ovarian = tested on: OVCAR-3 ovarian
OVCAR-8 ovarian = tested on: OVCAR-8 ovarian
SNB-75 CNS = tested on: SNB-75 CNS
SR leukemia = tested on: SR leukemia
A498 renal = tested on: A498 renal
BT-549 breast = tested on: BT-549 breast
MDA-MB-231 breast = tested on: MDA-MB-231 breast

SMILES | TGI (HCC-2998 colon) [µM] | TGI (MALME-3M melanoma) [µM] | TGI (NCI-H460 lung) [µM] | TGI (OVCAR-3 ovarian) [µM] | TGI (OVCAR-8 ovarian) [µM] | TGI (SNB-75 CNS) [µM] | TGI (SR leukemia) [µM] | TGI (A498 renal) [µM] | GI50 (A498 renal) [µM] | GI50 (BT-549 breast) [µM] | TGI (BT-549 breast) [µM] | GI50 (MALME-3M melanoma) [µM] | GI50 (MDA-MB-231 breast) [µM] | TGI (MDA-MB-231 breast) [µM] | GI50 (NCI-H460 lung) [µM] | GI50 (OVCAR-3 ovarian) [µM] | GI50 (OVCAR-8 ovarian) [µM] | GI50 (SNB-75 CNS) [µM] | GI50 (HCC-2998 colon) [µM] | GI50 (SR leukemia) [µM]
CN(C)P(=O)(/C(N)=N/Nc1ccc([N+](=O)[O-])cc1)N(C)C | > 100 | > 100 | > 100 | > 100 | > 100 | > 100 | > 100 | – | – | – | – | – | – | – | – | – | – | – | – | –
CC(O)C(NC(=O)C(Cc1ccccc1)NC(=O)C(NC(=O)C(CCCCN)NC(=O)C(Cc1c[nH]c2ccccc12)NC(=O)C(Cc1ccc(O)cc1)NC(=O)C(Cc1ccc(Cl)cc1)NC(=O)C(N)Cc1ccccc1)C(C)O)C(N)=O (stereo unspecified) (H-F[Phe(4-Cl)]YWKTFT-NH2; configuration not given here) | 73.7 | – | 32.5 | 36.2 | 67.5 | 37.4 | – | 34 | – | – | – | – | – | – | – | – | – | – | – | –
CC(C)N(C(=O)C12CC3CC(CC(C3)C1)C2)C(C)C | > 50 | > 50 | > 50 | > 50 | > 50 | > 50 | – | > 50 | – | – | – | – | – | – | – | – | – | – | – | –
CN(C)CCCn1c2c(c3ccccc3c1=O)C(=O)c1ccccc1-2 | – | 5.71 | 10.5 | 6.79 | 1.34 | 33.1 | – | 22.1 | 5.99 | 5.53 | 19.9 | 2.31 | 1.74 | 5.09 | 0.52 | 1.67 | 0.336 | 14.2 | – | –
CC(C)=CCC/C(=C/CC/C(C)=C/CCc1ccoc1)C(=O)O | > 100 | > 100 | > 100 | > 100 | > 100 | > 100 | – | > 100 | – | – | – | – | – | – | – | – | – | – | – | –
NC(N)=NCCCn1c2c(c3ccccc3c1=O)C(=O)c1ccccc1-2 | 15.8 | 45.1 | > 100 | 45.4 | > 100 | 26.4 | – | – | – | 2.28 | 5.51 | 18.6 | 15.8 | 46.7 | 15.3 | 18.3 | 36 | 5.69 | 3.6 | –
Cc1ccccc1N(CCC#N)C1=NN(C(=O)CC(=O)Nc2ccccc2)C(c2ccccc2)C1 (stereo unspecified) | > 100 | > 100 | > 100 | > 100 | > 100 | 96.7 | > 100 | – | – | – | – | – | – | – | – | – | – | – | – | –
COc1cc(NC(=O)c2cc(O)c(CC=C(C)C)c(O)c2)cc2c1O[C@]1(C)CC[C@@H](O)C(C)(C)[C@H]1C2 | 24.8 | 24.3 | 19.2 | 83.5 | 33.7 | 25.9 | – | 7.94 | 1.21 | 0.819 | 13.5 | 6.24 | 3.56 | 19.8 | 3.65 | 5.93 | 6.34 | 0.772 | 10.6 | –
COC(=O)C1=NC(=S)NC(c2ccccc2)C1c1nc2ccccc2s1 (stereo unspecified) | > 100 | > 100 | > 100 | > 100 | > 100 | > 100 | > 100 | > 100 | – | – | – | – | – | – | – | – | – | – | – | –
CCCCCCCCCCCCCC1CCC(CC)N1 (stereo unspecified) | 18.7 | 33.8 | 18.5 | 30.2 | 39.1 | 17.7 | 40.6 | 36.7 | – | – | – | – | – | – | – | – | – | – | – | –
COc1ccc(-c2cn3ccsc3n2)cc1 | > 100 | > 100 | > 100 | > 100 | > 100 | > 100 | 75.6 | – | – | – | – | – | – | – | – | – | – | – | – | –
N.N.N.N.N.O=C([O-])c1nn[n-]n1.[Cl-].[Co+3] | > 100 | > 100 | > 100 | > 100 | > 100 | > 100 | > 100 | – | – | – | – | > 100 | – | – | > 100 | > 100 | > 100 | > 100 | > 100 | > 100
CCOC(=O)NC(=O)c1cn(CCOCCOC(=O)NCCCCCCNC(=O)OCCOCCn2cc(C(=O)NC(=O)OCC)c(=O)[nH]c2=O)c(=O)[nH]c1=O | > 100 | > 100 | > 100 | > 100 | > 100 | > 100 | > 100 | > 100 | – | – | – | – | – | – | – | – | – | – | – | –
COc1ccc(C(=O)c2cc(C)c(OC)c(C)c2)c(OC)c1N(C(=O)C(Cl)Cl)C(=O)C(Cl)Cl | > 41.2 | > 100 | 15.7 | – | > 100 | > 100 | – | 0.0736 | < 0.0156 | 0.0607 | 2.75 | 0.129 | 0.107 | > 100 | 0.0381 | 0.0357 | 0.0558 | 0.0283 | 0.0799 | –
